assay: logP from HPLC retention times; format: physicochemical

Chromatographic logP, 4.8 to 5.5:
COc1ccc(Cl)cc1Nc1nc(-c2sc(NC(=O)C(C)(C)C)nc2C)c(-n2cc(CO)nn2)s1 [compound 13, N-(2-(5-Chloro-2-methoxyphenylamino)-5-(4-(hydroxyl-methyl)-1H-1,2,3-triazol-1-yl)-4′-methyl-4,5′-bithiazol-2′-yl)pivalamide]
COC(=O)c1cn(-c2sc(Nc3cc(Cl)ccc3OC)nc2-c2sc(NC(=O)C(C)(C)C)nc2C)nn1 [compound 14, Methyl 1-(2-(5-chloro-2-methoxyphenylamino)-4′-methyl-2′-pivalamido-4,5′-bithiazol-5-yl)-1H-1,2,3-triazole-4-carboxylate]
COc1ccc(Cl)cc1Nc1nc(-c2sc(NC(=O)C(C)(C)C)nc2C)c(-n2cc(C(=O)O)nn2)s1 [compound 15, 1-(2-(5-Chloro-2-methoxyphenylamino)-4′-methyl-2′-pivalamido-4,5′-bithiazol-5-yl)-1H-1,2,3-triazole-4-carboxylic acid]

Source: paper PMC3419814 (Bioorganic & medicinal chemistry, 2012)
